Results from patent publication US20220213055A1, “SUBSTITUTED (PIPERIDIN-1-YL)ARYL ANALOGUES FOR MODULATING AVIL ACTIVITY” (University of Virginia Patent Foundation, priority 2019, published 2022).
Read-outs that look alike come from different tables or passages of the source.

Tests used:
Format in all cases: cell-based
[1] = tested on: Glioblastoma cell line U87 cells; assay: MTT cell viability assay, glioblastoma cells; conditions: for IC50: Homo sapiens, U-87 MG, 72 h, U87 glioblastoma cells, MTT after three days
Procedure: (§1) Different concentration of compounds were added to the cells. Three days later, a MTT assay (Sigma) was performed to monitor cell viability.
(§2) In this example, samples of glioblastoma cells (U87) and astrocyte cells (non-cancer control) were exposed various disclosed compounds to determine the effectiveness of the compounds for inhibiting cell growth.

[2] = target: T1, AVIL protein binding to actin (Homo sapiens, UniProt O75366); assay: Immunoprecipitation (MYC antibody) and Western blot (β-actin antibody) in 293T cells transfected with MYC tagged AVIL; conditions: IC50 dose, 24 hrs, FIGS. 2A and 2B
T1 construct: expressed in transfected cells; host or cells: 293T cells
T1 sequence (O75366 1-819): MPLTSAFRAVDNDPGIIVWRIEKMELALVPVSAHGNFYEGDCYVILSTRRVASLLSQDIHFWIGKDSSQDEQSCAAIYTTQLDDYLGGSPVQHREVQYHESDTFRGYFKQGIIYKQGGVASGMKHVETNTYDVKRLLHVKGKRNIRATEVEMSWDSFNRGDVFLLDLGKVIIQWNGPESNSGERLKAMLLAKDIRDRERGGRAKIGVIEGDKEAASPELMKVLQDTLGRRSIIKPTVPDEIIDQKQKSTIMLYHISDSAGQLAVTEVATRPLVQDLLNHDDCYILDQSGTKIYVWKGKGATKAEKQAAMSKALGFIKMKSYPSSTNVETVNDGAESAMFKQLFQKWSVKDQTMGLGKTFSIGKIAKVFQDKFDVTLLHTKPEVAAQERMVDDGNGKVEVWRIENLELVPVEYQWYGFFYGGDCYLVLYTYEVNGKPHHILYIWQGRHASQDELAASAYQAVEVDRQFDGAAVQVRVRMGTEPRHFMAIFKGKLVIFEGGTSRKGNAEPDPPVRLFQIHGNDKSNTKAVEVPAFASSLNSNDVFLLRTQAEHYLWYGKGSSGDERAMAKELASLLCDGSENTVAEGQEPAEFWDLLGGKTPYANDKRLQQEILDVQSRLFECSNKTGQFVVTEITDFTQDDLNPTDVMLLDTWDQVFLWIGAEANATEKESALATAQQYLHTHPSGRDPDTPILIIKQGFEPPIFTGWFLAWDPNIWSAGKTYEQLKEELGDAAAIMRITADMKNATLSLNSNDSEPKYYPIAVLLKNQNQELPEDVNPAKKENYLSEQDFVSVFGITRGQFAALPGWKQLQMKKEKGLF
Procedure: 293T cells were first transfected with MYC tagged AVIL. After 24 hrs, the cells were treated with the IC50 dose of the five compounds for 24 hrs. Immunoprecipitation was performed with MYC antibody, and Western blot was performed with β-actin antibody.
293T cells were first transfected with MYC tagged AVIL as follows: transfect pQCXIH-myc-AVIL plasmid in 6 well plate of 293T for 48 hrs. 200 ul opti-medium+7 ul GeneCellin (Polyplus transfection Co.)+4 ug plasmids in each well. Transfected AVIL cells were treated with the IC50 dose of the test compounds for 24 hrs. Protein extract was then prepared on ice by adding 1 ml IP lysis buffer+protease inhibitor+cocktail+PMSF, and let stand on ice for 30 min. Cells were then scraped into EP tubes and sonicated continuously for 5 sec with power setting 3. Tubes were then centrifuged in 4° C. at 13000 rpm for 20 min, and the upper aqueous phase was then transferred to pre-chilled tubes. Protein concentration was then determined using Bio-Rad protein assay. Preclear cell extracts were treated with 50 ul ProteinG/Sepharose per my lysate for 1 hr. Then 500 ug precleared cell extracts were taken and adjusted to 500 ul with lysis buffer for 2 ug myc antibody or IgG control and incubated at 4° C. overnight. Then, 25 ul ProteinG/Sepharose beads were added and incubated at 4° C. overnight. Beads were then washed four times with 1 ml IP wash buffer for 3 min, and spun at 1000 rpm to pellet beads. All wash buffer was removed with pipette, and 20 ul 2×SDS loading buffer was added and then boiled at 95° C. for 10 min to denature. This was centrifuged at 12000 rpm for 30 sec., and the supernatant was then transferred to a fresh tube and load for SDS-PAGE.
Western blot was performed with R-actin antibody. To measure protein levels, cell lysates were resolved by denaturing gel electrophoresis, before electrotransfer to a Protran nitrocellulose membrane. The membrane was subjected to western blot analysis with antibodies against the proteins of interest. The following antibodies and dilutions were used: rabbit anti-AVIL (1:2000; Sigma SAB2100191).

LIN28B = LIN28B gene expression by qRT-PCR in U87 cells; conditions: IC50 concentration, relative to GAPDH, FIG. 3
Procedure: U87 cells were treated at the IC50 concentration of the five test compounds. Cells were harvested. RNA was extracted using TRIzol reagent (Invitrogen) and quantified with Nanodrop (Thermo). cDNA was generated by AMV-RT kit (NEB), and a random hexamer primer. Real-time qPCR was carried out on the StepOne Plus system from Applied Biosystems using SYBR mix (Thermo). LIN28B expression was measured by qRT-PCR and is represented relative to GAPDH levels. […] The following primers were used for […] and GAPDH amplifications: […]

[3] = tested on: Immortalized human astrocytes; assay: MTT cell viability assay, astrocytes (non-cancer control); conditions: for IC50: immortalized human astrocytes, MTT after three days
Procedure: as §1, §2

Row | SMILES | IC50 [1] [nM] | IC50 ([1]; value in nM) [nM] | concentration at which most if not all of the U87 cells were wiped out ([1]; FIG. 1 cell survival curves, U87) | disruption of AVIL protein binding to actin [2] | down-regulation of LIN28B gene expression (LIN28B) | effect on astrocytes ([3]; FIG. 1 cell survival curves, astrocytes, varied doses) | IC50 ([3]; Homo sapiens, Astrocyte, 72 h) [µM] | IC50 ([3]; read-out: IC50 (astrocyte)) [µM]
1 | c1ccc(COCC2CCCN(c3ncnc4ccccc34)C2)cc1 (stereo not shown) [PLH2069, 4-(3-((Benzyloxy)methyl)piperidin-1-yl)quinazoline] | – | – | – | disruption of AVIL protein binding to actin | down-regulation of LIN28B gene expression | – | – | –
2 | Clc1cc(N2CCc3ccccc3C2)ncn1 [JDDUVA81] | > 80000 | – | – | – | – | – | > 80 | –
3 | Nc1cncc(N2CCC(CO)(CCCc3ccccc3)CC2)n1 [JDDUVA55] | 16000 | – | – | – | – | – | > 80 | –
4 | Nc1nccc(N2CCCCC2)n1 [JDDUVA12, 4-(Piperidin-1-yl)pyrimidin-2-amine] | > 80000 | – | – | – | – | – | > 80 | –
5 | Nc1ncnc(N2CCC(CO)(CCCc3ccccc3)CC2)c1N [JDDUVA51, (1-(5,6-Diaminopyrimidin-4-yl)-4-(3-phenylpropyl)piperidin-4-yl)methanol] | 12000 | – | – | – | – | – | > 80 | –
6 | COC(=O)C1(CCCc2ccccc2)CCCN(c2ccnc(N)n2)C1 (stereo not shown) [JDDUVA20] | ~10900 | – | – | – | – | – | 70 | –
7 | Cc1ncnc(N2CCC(CO)(CCCc3ccccc3)CC2)c1C [JDDUVA96, (1-(5,6-Dimethylpyrimidin-4-yl)-4-(3-phenylpropyl)piperidin-4-yl)methanol] | ~4000 | – | – | – | – | – | ~8 | –

Continued, in another order:

Row | IC50 [1] [nM] | IC50 ([1]; value in nM) [nM] | SMILES | concentration at which most if not all of the U87 cells were wiped out ([1]; FIG. 1 cell survival curves, U87) | disruption of AVIL protein binding to actin [2] | down-regulation of LIN28B gene expression (LIN28B) | effect on astrocytes ([3]; FIG. 1 cell survival curves, astrocytes, varied doses) | IC50 ([3]; Homo sapiens, Astrocyte, 72 h) [µM] | IC50 ([3]; read-out: IC50 (astrocyte)) [µM]
8 | ~1000 | ~600 | Cc1nc(N)nc(N2CCCC(CO)(CCCc3ccccc3)C2)c1C (stereo not shown) [PLH1252, (1-(2-Amino-5,6-dimethylpyrimidin-4-yl)-3-(3-phenylpropyl)piperidin-3-yl)methanol] | less than 1 μM | disruption of AVIL protein binding to actin | down-regulation of LIN28B gene expression | no significant effect | 45 | ~80
9 | < 1000 | 500 | OCC1(CCCc2ccccc2)CCCN(c2ncnc3ccccc23)C1 (stereo not shown) [PLH1295, (3-(3-Phenylpropyl)-1-(quinazolin-4-yl)piperidin-3-yl)methanol] | – | disruption of AVIL protein binding to actin | down-regulation of LIN28B gene expression | – | 22 | 30
10 | ~80000 | – | Cc1c(-c2ccccc2)ncnc1N1CCCC(CO)(CCCc2ccccc2)C1 (stereo not shown) [PLH2063, (1-(5-methyl-6-phenylpyrimidin-4-yl)-3-(3-phenylpropyl)piperidin-3-yl)methanol] | – | – | – | – | ~80 | –
11 | > 80000 | – | OCC1(CCCc2ccccc2)CCCNC1 (stereo not shown) [PLH1211] | – | – | – | – | > 80 | –
12 | ~30000 | – | CC(C)(C)OC(=O)N1CCCC(CO)(CCCc2ccccc2)C1 (stereo not shown) [PLH1196] | – | – | – | – | > 80 | –
13 | < 2500 | – | Cc1ncnc(N2CCCC(CO)(CCCc3ccccc3)C2)c1C (stereo not shown) [PLH2056, (1-(5,6-Dimethylpyrimidin-4-yl)-3-(3-phenylpropyl)piperidin-3-yl)methanol] | – | disruption of AVIL protein binding to actin | down-regulation of LIN28B gene expression | – | ~80 | –
14 | 3830 | – | Nc1nccc(N2CCCC(CO)(CCc3ccccc3)C2)n1 (stereo not shown) [PLH1304, (1-(2-Aminopyrimidin-4-yl)-3-phenethylpiperidin-3-yl)methanol] | – | – | – | – | ~80 | –
